Assay results: paper PMC3427785 (The Journal of organic chemistry, 2012)
Like-named read-outs stand apart in the source and are kept apart here.

Experiments:
[1] = tested on: cytomegalovirus (CMV) AD-169 strain; assay: Anti-CMV activity; format: cell-based; settings: read-out: anti-CMV activity EC50, AD-169 strain
[2] = tested on: cytomegalovirus (CMV) Davis strain; assay: Anti-CMV activity; format: cell-based; settings: read-out: anti-CMV activity EC50, Davis strain
[3] = tested on: human ovarian cancer 1A9 cells; assay: Antiproliferative activity; format: cell-based; settings: read-out: GI50, 1A9; ovarian 1A9; four days
[4] = tested on: 1A9-PTX10; assay: Antiproliferative activity; format: cell-based, human
[5] = tested on: 1A9-PTX22; assay: Antiproliferative activity; format: cell-based, human; settings: read-out: GI50, PTX22; paclitaxel-resistant ovarian 1A9-PTX22; four days
[6] = tested on: colorectal carcinoma HCT116 cells; assay: Antiproliferative activity; format: cell-based, human; settings: read-out: GI50, HCT116, four days
[7] = tested on: HCT116 p53 knockout cells; format: cell-based, human; settings: read-out: GI50, p53KO, four days
[8] = tested on: vesicular stomatitis virus (VSV); format: cell-based; settings: read-out: anti-VSV activity; human cervix carcinoma HeLa cell cultures
[9] = tested on: vesicular stomatitis virus (VSV); format: cell-based; settings: human embryonic lung (HEL) fibroblast cell cultures
[10] = tested on: HeLa and HEL cell cultures
[11] = tested on: cytomegalovirus (CMV); assay: Anti-CMV activity in HEL cells as summarised in text; format: cell-based
[12] = tested on: HEL cells; assay: HEL cell growth inhibition; format: cell-based, human; settings: read-out: HEL cell effects, cell growth (IC50); concentration required to reduce cell growth by 50%
[13] = tested on: canine kidney MDCK
[14] = tested on: feline kidney CRFK
[15] = tested on: green monkey kidney Vero
[16] = read-out: GI50, PTX10, paclitaxel-resistant ovarian 1A9-PTX10, four days

| Molecule | EC50 [1] | EC50 [2] | GI50 [3] | GI50 [4, 16] | GI50 [5] | GI50 [6] | GI50 [7] | EC50 [8] | anti-VSV activity (in words) [9] | toxicity observed [10] | activity against cytomegalovirus (in words) [11] | IC50 [12] | GI50 ([4]; Homo sapiens, 1A9/ptx-10, read-out: GI50, PTX10) | activity against cytomegalovirus (in words) ([11]; HEL cells) | minimum detectable morphology-altering (cytotoxic) concentration (MCC) [13] | minimum detectable morphology-altering (cytotoxic) concentration (MCC) [14] | minimum detectable morphology-altering (cytotoxic) concentration (MCC) [15] |
| --- | --- | --- | --- | --- | --- | --- | --- | --- | --- | --- | --- | --- | --- | --- | --- | --- | --- |
| CCCCc1cn(-c2nc(O)c3ncn([C@H]4C[C@H](O)[C@@H](CO)O4)c3n2)nn1 [Compound 30, 2-(4-n-Butyl-1,2,3-triazol-1H-yl)-2′-deoxyinosine] | > 270 µM | > 270 µM | 46.1 µM | > 50 µM | 26.9 µM | > 50 µM | > 50 µM |  |  |  |  |  |  |  |  |  |  |
| COc1ccc(-c2cn(-c3nc(O)c4ncn([C@H]5C[C@H](O)[C@@H](CO)O5)c4n3)nn2)cc1 [Compound 26, 2-[4-(4-Methoxyphenyl)-1,2,3-triazol-1H-yl]-2′-deoxyinosine] | > 240 µM | > 240 µM | 37.2 µM | > 50 µM | 15.7 µM | > 50 µM | > 50 µM |  |  |  |  |  |  |  |  |  |  |
| OC[C@H]1O[C@@H](n2cnc3c(NCc4ccccc4)nc(-n4cc(-c5ccccc5)nn4)nc32)[C@H](O)[C@@H]1O [Compound 35, 6-(N-Benzyl)-2-[4-(phenyl)-1,2,3-triazol-1H-yl]adenosine] |  |  | 5 µM | > 50 µM | 24.5 µM | 43.6 µM | > 50 µM |  |  |  |  |  |  |  |  |  |  |
| OC[C@H]1O[C@@H](n2cnc3c(O)nc(-n4cc(-c5ccccc5)nn4)nc32)[C@H](O)[C@@H]1O [Compound 17, 2-[4-(Phenyl)-1,2,3-triazol-1H-yl]inosine] |  |  | 22.8 µM | > 50 µM | 4.76 µM | > 50 µM | > 50 µM | 27 ± 2.4 µM | could not be confirmed | 100 to 240 µM |  |  |  |  |  |  |  |
| O=C1c2ccccc2C(=O)N1Cc1cn(-c2nc(O)c3ncn([C@H]4C[C@H](O)[C@@H](CO)O4)c3n2)nn1 [Compound 28, 2-[4-(N-Phthalimidomethyl)-1,2,3-triazol-1H-yl]-2′-deoxyinosine] | > 210 µM | > 210 µM | 49.6 µM | > 50 µM | 32.2 µM | > 50 µM | > 50 µM |  |  |  |  |  |  |  |  |  |  |
| OC[C@H]1O[C@@H](n2cnc3c(O)nc(-n4cc(-c5ccccc5)nn4)nc32)C[C@@H]1O [Compound 25, 2-[4-(Phenyl)-1,2,3-triazol-1H-yl]-2′-deoxyinosine] | ≥ 250 µM | 158 µM | 31 µM | > 50 µM | 14.8 µM | > 50 µM | > 50 µM |  |  |  | marginal activity | 188 µM |  |  |  |  |  |
| CC(=O)O[C@H]1C(=O)[C@@]2(C)[C@H]([C@H](OC(=O)c3ccccc3)[C@]3(O)C[C@H](OC(=O)[C@H](O)[C@@H](NC(=O)c4ccccc4)c4ccccc4)C(C)=C1C3(C)C)[C@]1(OC(C)=O)CO[C@@H]1C[C@@H]2O [paclitaxel, reference compound] |  |  |  |  |  |  |  |  |  |  |  |  | 0.079 µM |  |  |  |  |
| 2-[4-(Ferrocenyl)-1,2,3-triazol-1H-yl]inosine [Compound 22] |  |  | 29.7 µM | > 50 µM | 12.9 µM | > 50 µM | > 50 µM |  |  |  |  | 123 µM |  | marginal activity |  |  |  |
| 2-[4-(4-Methylphenyl)-1,2,3-triazol-1H-yl]inosine [Compound 18] |  |  | 38 µM | > 50 µM | 13.4 µM | > 50 µM | > 50 µM |  |  |  |  | ≥ 240 µM |  | marginal activity |  |  |  |
| 2-[4-(N-Phthalimidomethyl)-1,2,3-triazol-1H-yl]inosine [Compound 21] |  |  | 6.32 µM | > 50 µM | 14.1 µM | > 50 µM | > 50 µM |  |  |  |  | > 200 µM |  |  |  |  |  |
| 2-[4-(Hydroxymethyl)-1,2,3-triazol-1H-yl]inosine [Compound 20] |  |  | 20.4 µM | > 50 µM | 3.53 µM | > 50 µM | 42.6 µM |  |  |  |  |  |  |  |  |  |  |
| 2-[4-(4-Fluorophenyl)-1,2,3-triazol-1H-yl]inosine [Compound 24] |  |  | 34 µM | > 50 µM | 31 µM | > 50 µM | > 50 µM |  |  |  |  |  |  |  |  |  |  |
| 2-(4-n-Butyl-1,2,3-triazol-1H-yl)inosine [Compound 23] |  |  | 37 µM | > 50 µM | 28.1 µM | > 50 µM | > 50 µM |  |  |  |  | > 250 µM |  | somewhat more pronounced |  |  |  |
| 6-(Morpholin-4-yl)-2-(4-phenyl-1,2,3-triazol-1H-yl)-9-(β-D-ribofuranosyl)purine [Compound 34] |  |  | 0.18 µM | 11.7 µM | 0.95 µM | 3.7 µM | 10.4 µM |  |  |  |  |  |  |  | 8.3 μM | 83 μM | 210 μM |
| OC[C@H]1O[C@@H](n2cnc3c(O)nc(-n4cc(-[c-]5cccc5)nn4)nc32)C[C@@H]1O.[Fe+2].c1cc[cH-]c1 [Compound 29, 2-[4-(Ferrocenyl)-1,2,3-triazol-1H-yl]-2′-deoxyinosine] | ≥ 200 µM | ≥ 200 µM | 41.6 µM | > 50 µM | 18 µM | > 50 µM | > 50 µM |  |  |  |  | > 200 µM |  |  |  |  |  |
| 2-[4-(4-Methoxyphenyl)-1,2,3-triazol-1H-yl]inosine [Compound 19] |  |  | 29.5 µM | > 50 µM | 8.56 µM | > 50 µM | > 50 µM |  |  |  |  | > 230 µM |  |  |  |  |  |
| OCc1cn(-c2nc(O)c3ncn([C@H]4C[C@H](O)[C@@H](CO)O4)c3n2)nn1 [Compound 27, 2-[4-(Hydroxymethyl)-1,2,3-triazol-1H-yl]-2′-deoxyinosine] | > 290 µM | > 290 µM | 49.4 µM | > 50 µM | 32.9 µM | > 50 µM | > 50 µM |  |  |  |  |  |  |  |  |  |  |
